What was measured:
Assay in all cases: area under the viability dose-response curve (AUC) (AUC (arbitrary units, max 500 = no viability loss)); higher = less sensitive (higher viability)
Settings in all cases: exposure time: 120 h; concentration range: 0.1 nM - 10 µM, 6 doses
13F2 = test system: 13F2 (fetal-II hepatoblastoma organoid with high liver markers)
Experimental: (§1)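 Patient-derived hepatoblastoma tumor organoids (about 50 organoids per well, 384-well plates, medium with 5% BME) were treated with the PMC pediatric cancer drug library. Each drug was tested in duplicate at 6 concentrations (0.1 nM to 10 µM, 10-fold steps).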

22E = test system: 22E (embryonal-type hepatoblastoma organoid)
Experimental: as §1

3E = test system: 3E (embryonal-type hepatoblastoma organoid)
Experimental: as §1

135F2 = test system: 135F2 (fetal-II hepatoblastoma organoid with high liver markers)
Experimental: as §1

17E = test system: 17E (embryonal-type hepatoblastoma organoid)
Experimental: as §1

13E = test system: 13E (embryonal-type hepatoblastoma organoid)
Experimental: as §1

27F1 = test system: 27F1 (fetal-I hepatoblastoma organoid with intermediate liver markers)
Experimental: as §1

96F1 = test system: 96F1 (fetal-I hepatoblastoma organoid with intermediate liver markers)
Experimental: as §1

10F2 = test system: 10F2 (fetal-II hepatoblastoma organoid with high liver markers)
Experimental: as §1

17F1 = test system: 17F1 (fetal-I hepatoblastoma organoid with intermediate liver markers)
Experimental: as §1

8F1 = test system: 8F1 (fetal-I hepatoblastoma organoid with intermediate liver markers)
Experimental: as §1

Structure (SMILES)	area under the viability dose-response curve (13F2)	area under the viability dose-response curve (22E)	area under the viability dose-response curve (3E)	area under the viability dose-response curve (135F2)	area under the viability dose-response curve (17E)	area under the viability dose-response curve (13E)	area under the viability dose-response curve (27F1)	area under the viability dose-response curve (96F1)	area under the viability dose-response curve (10F2)	area under the viability dose-response curve (17F1)	area under the viability dose-response curve (8F1)
Cc1nc(-c2cn3c(n2)-c2ccc(-c4cnn(C(C)(C)C(N)=O)c4)cc2OCC3)n(C(C)C)n1 [Taselisib]	351	415	305	435	349	388	413	437	361	493	475
C[C@H](NC(=O)c1c(N)nn2cccnc12)c1cc2cccc(C#Cc3cnn(C)c3)c2c(=O)n1-c1ccccc1 [IPI549]	479	477	428	> 500	464	463	> 500	459	459	> 500	> 500
Cc1ccc(C(=O)Nc2ccc(Oc3cc4cnn(C)c4cc3-c3cn[nH]c3)c(F)c2)c(=O)n1-c1ccc(F)cc1 [Merestinib]	466	464	452	487	486	463	> 500	> 500	432	> 500	484
O=C(/C=C/c1cccc(S(=O)(=O)Nc2ccccc2)c1)NO [Belinostat]	359	425	355	386	367	401	418	409	365	437	434
N#CCNC(=O)c1ccc(-c2ccnc(Nc3ccc(N4CCOCC4)cc3)n2)cc1 [Momelotinib]	443	489	462	462	444	471	496	465	442	489	479
CS(=O)(=O)CCNCc1ccc(-c2ccc3ncnc(Nc4ccc(OCc5cccc(F)c5)c(Cl)c4)c3c2)o1 [Lapatinib]	388	463	464	474	482	483	416	445	336	459	495
CCOc1cc2ncc(C#N)c(Nc3ccc(OCc4ccccn4)c(Cl)c3)c2cc1NC(=O)/C=C/CN(C)C [Neratinib]	319	453	444	462	424	464	362	416	234	431	449
CNC(=O)CN1CCC(Oc2cc3c(Nc4cccc(Cl)c4F)ncnc3cc2OC)CC1 [Sapitinib]	312	492	431	458	491	> 500	338	404	235	464	439
Cc1c2c(nn1C)CSCc1cc(n(C)n1)CSc1cc(c3ccccc3c1)OCCCc1c(C(=O)O)n(C)c3c-2c(Cl)ccc13 [AZD5991]	277	400	310	379	370	403	473	> 500	190	482	484
CO[C@H]1/C=C/C[C@H](C)[C@@H](C)S(=O)(=O)NC(=O)c2ccc3c(c2)N(C[C@@H]2CC[C@H]21)C[C@@]1(CCCc2cc(Cl)ccc21)CO3 [AMG-176]	344	454	369	431	434	421	450	488	274	481	475
C=CCNC1=C2C[C@@H](C)C[C@H](OC)[C@H](O)[C@@H](C)/C=C(\C)[C@H](OC(N)=O)[C@@H](OC)/C=C\C=C(/C)C(=O)NC(=CC1=O)C2=O [Tanespimycin]	245	346	382	267	337	384	311	327	220	373	356

Reference: the supplement of paper PMC11579375
